Experimental data published in ChEMBL document CHEMBL1150468, “Sch 53823 and Sch 53825, novel fungal metabolites with phospholipase D inhibitory activity” (Bioorg Med Chem Lett, 1996).
pIC50: −log10 of the molar value.

Assay: In vitro inhibitory activity in the fMLP-stimulated phospholipase (PLD) assay

Row | SMILES | pIC50
1 | Oc1cccc2c1[C@@H](O)[C@H]1O[C@H]1C21Oc2cccc3cccc(c23)O1 | 4.62
2 | CC(=O)Oc1c(Cl)ccc2c1[C@@H](OC(C)=O)[C@H]1O[C@H]1C21Oc2cccc3cccc(c23)O1 | < 4.30
3 | CC(=O)Oc1cccc2c1[C@@H](OC(C)=O)[C@H]1O[C@H]1C21Oc2cccc3cccc(c23)O1 | 4.77
4 | Oc1c(Cl)ccc2c1[C@@H](O)[C@H]1O[C@H]1C21Oc2cccc3cccc(c23)O1 | 4.72
